Patent US20250179061A1 (SIRONAX LTD., priority 2022, published 2025)

Test system: HT-29 cells
Test: HT-29 necroptosis cell viability assay (TNF-α/SMAC mimetic/zVAD-FMK, CellTiter-Glo)
Format: cell-based
Conditions: Homo sapiens, HT-29, HT-29 cells, necroptosis induced by TNF-α/SMAC mimetic/zVAD-FMK, CellTiter-Glo; read-out: Activity (IC50 class)
How it was run: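 HT-29 cells (~5,000/well, overnight) in FBS-free McCoy's 5A with TNF-α 10 ng/ml, SMAC mimetic 6 μM and zVAD-FMK 10 μM plus 10-point 1:3 compound titration, 20 h at 37°C. ATP measured by CellTiter-Glo luminescence; IC50 as geometric mean of duplicates.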

SMILES	IC50 [µM]
Cc1nc(C2=NCCN2C)sc1Oc1ccc(-n2ncn(Cc3c(F)cccc3F)c2=O)cc1 [Example 633, 4-(2,6-difluorobenzyl)-2-(4-((4-methyl-2-(1-methyl-4,5-dihydro-1H-imidazol-2-yl)thiazol-5-yl)oxy)phenyl)-2,4-dihydro-3H-1,2,4-triazol-3-one]	< 0.1
O=c1n(Cc2c(F)cccc2F)cnn1-c1ccc(Oc2c(Cl)ccnc2N2CC3(CCOCC3)C2)cc1 [Example 673, 2-(4-((4-chloro-2-(7-oxa-2-azaspiro[3.5]nonan-2-yl)pyridin-3-yl)oxy)phenyl)-4-(2,6-difluorobenzyl)-2,4-dihydro-3H-1,2,4-triazol-3-one]	> 10
COc1ncccc1Cc1ccc(-n2ncn(Cc3c(F)cccc3F)c2=O)cc1 [Example 683, 4-(2,6-difluorobenzyl)-2-(4-((2-methoxypyridin-3-yl)methyl)phenyl)-2,4-dihydro-3H-1,2,4-triazol-3-one]	< 0.1
Cc1nc(C(=O)NC2CCOCC2)sc1Oc1ccc(-n2ncn(Cc3ccccc3F)c2=O)cc1F [Example 642, 5-[2-fluoro-4-[4-[(2-fluorophenyl)methyl]-5-oxo-1,2,4-triazol-1-yl]phenoxy]-4-methyl-N-tetrahydropyran-4-yl-thiazole-2-carboxamide]	< 0.1

Same assay, conditions: Homo sapiens, HT-29, HT-29 necroptosis cell viability assay; class symbols for IC50; read-out: Activity

SMILES	IC50 [µM]
CCOC(=O)C(F)(F)c1nc(C)c(Oc2ccc(-n3ncn(Cc4c(F)cccc4F)c3=O)cc2F)s1 [Example 118, ethyl 2-(5-(4-(4-(2,6-difluorobenzyl)-5-oxo-4,5-dihydro-1H-1,2,4-triazol-1-yl)-2-fluorophenoxy)-4-methylthiazol-2-yl)-2,2-difluoroacetate]	0.1 to 1
Cc1nc(N2CC(C)(N)C2)sc1C(C)c1ccc(-n2ncn(Cc3c(F)cccc3F)c2=O)cc1 (stereo not drawn) [Example 513, 2-[4-[1-[2-(3-amino-3-methyl-azetidin-1-yl)-4-methyl-thiazol-5-yl]ethyl]phenyl]-4-[(2,6-difluorophenyl)methyl]-1,2,4-triazol-3-one; 2,2,2-trifluoroacetic acid]	0.1 to 1
COC1(C)CN(c2nccc(Oc3ccc(-n4ncn(Cc5c(F)cccc5F)c4=O)cc3Cl)c2F)C1 [Example 497, 2-(3-chloro-4-((3-fluoro-2-(3-methoxy-3-methylazetidin-1-yl)pyridin-4-yl)oxy)phenyl)-4-(2,6-difluorobenzyl)-2,4-dihydro-3H-1,2,4-triazol-3-one]	< 0.1
Cc1nc(C(=O)N2C[C@H](O)[C@@H]2C)sc1Oc1ccc(-n2ncn(Cc3c(F)cccc3F)c2=O)cc1F [Example 588, 4-(2,6-difluorobenzyl)-2-(3-fluoro-4-((2-((2S,3S)-3-hydroxy-2-methylazetidine-1-carbonyl)-4-methylthiazol-yl)oxy)phenyl)-2,4-dihydro-3H-1,2,4-triazol-3-one]	< 0.1
Cc1nc(Oc2ccc(-n3ncn(Cc4c(F)cccc4F)c3=O)c(F)c2)n(C)c1C(N)=O [Example 115, 2-(4-(4-(2,6-difluorobenzyl)-5-oxo-4,5-dihydro-1H-1,2,4-triazol-1-yl)-3-fluorophenoxy)-1,4-dimethyl-1H-imidazole-5-carboxamide]	1 to 10
Cc1c(C#N)cnn1Cc1ccc(-n2ncn(Cc3c(F)cccc3F)c2=O)cc1 [Example 191, 1-(4-(4-(2,6-difluorobenzyl)-5-oxo-4,5-dihydro-1H-1,2,4-triazol-1-yl)benzyl)-5-methyl-1H-pyrazole-4-carbonitrile]	< 0.1
Cc1cnn(C)c1Oc1ccc(-n2ncn(Cc3c(F)cccc3F)c2=O)cc1 [Example 176, 4-(2,6-difluorobenzyl)-2-(4-((1,4-dimethyl-1H-pyrazol-5-yl)oxy)phenyl)-2,4-dihydro-3H-1,2,4-triazol-3-one]	< 0.1
C/C(=N\O)c1nc(C)c(Oc2ccc(-n3ncn(Cc4c(F)cccc4F)c3=O)cc2F)s1 [Example 164, 4-(2,6-difluorobenzyl)-2-(3-fluoro-4-((2-(1-(hydroxyimino)ethyl)-4-methylthiazol-5-yl)oxy)phenyl)-2,4-dihydro-3H-1,2,4-triazol-3-one]	< 0.1
CC(C)(C)OC(=O)N1CCC2(CC1)CN(c1cc(Oc3ccc(-n4ncn(Cc5c(F)cccc5F)c4=O)cc3)ccn1)C2 [Example 480, tert-butyl2-(4-(4-(4-(2,6-difluorobenzyl)-5-oxo-4,5-dihydro-1H-1,2,4-triazol-1-yl)phenoxy)pyridin-2-yl)-2,7-diazaspiro[3.5]nonane-7-carboxylate]	< 0.1
O=c1n(Cc2c(F)cccc2F)cnn1-c1ccc(Oc2cc(C3=CCOCC3)ncc2F)c(F)c1 [Example 548, 4-(2,6-difluorobenzyl)-2-(4-((2-(3,6-dihydro-2H-pyran-4-yl)-5-fluoropyridin-4-yl)oxy)-3-fluorophenyl)-2,4-dihydro-3H-1,2,4-triazol-3-one]	< 0.1

Same assay, conditions: Homo sapiens, HT-29, HT-29 necroptosis cell viability, IC50 class symbols; read-out: Activity

SMILES	IC50 [µM]
Cc1nc(N)sc1Sc1ccc(-n2ncn(Cc3ccccc3)c2=O)cc1 [Example 458, 2-(4-((2-amino-4-methylthiazol-5-yl)thio)phenyl)-4-benzyl-2,4-dihydro-3H-1,2,4-triazol-3-one]	< 0.1
Cc1nc(N2CC3(CCN3)C2)sc1Oc1ccc(-n2ncn(Cc3c(F)cccc3F)c2=O)cc1 [Example 455, 4-(2,6-difluorobenzyl)-2-(4-((4-methyl-2-(1,6-diazaspiro[3.3]heptan-6-yl)thiazol-5-yl)oxy)phenyl)-2,4-dihydro-3H-1,2,4-triazol-3-one]	< 0.1
N#Cc1ccccc1Oc1ccc(-n2ncn(Cc3c(F)cccc3F)c2=O)cc1 [Example 404, 2-(4-(4-(2,6-difluorobenzyl)-5-oxo-4,5-dihydro-1H-1,2,4-triazol-1-yl)phenoxy)benzonitrile]	0.1 to 1
O=c1n(Cc2c(F)cccc2F)cnn1-c1ccc(Oc2ccnc(N3CC(OC(F)(F)F)C3)c2)cc1 [Example 275, 4-(2,6-difluorobenzyl)-2-(4-((2-(3-(trifluoromethoxy)azetidin-1-yl)pyridin-4-yl)oxy)phenyl)-2,4-dihydro-3H-1,2,4-triazol-3-one]	0.1 to 1
Cc1nc(C(C)(C)O)sc1Oc1ccc(-n2ncn(Cc3cc(Cl)ccn3)c2=O)cc1F [Example 471, 4-((4-chloropyridin-2-yl)methyl)-2-(3-fluoro-4-((2-(2-hydroxypropan-2-yl)-4-methylthiazol-5-yl)oxy)phenyl)-2,4-dihydro-3H-1,2,4-triazol-3-one]	1 to 10
C[C@H]1COCCN1c1cc(Oc2ccc(-n3ncn(Cc4c(F)cccc4F)c3=O)cc2)ccn1 [Example 244, (S)-4-(2,6-difluorobenzyl)-2-(4-((2-(3-methylmorpholino)pyridin-4-yl)oxy)phenyl)-2,4-dihydro-3H-1,2,4-triazol-3-one]	0.1 to 1
C[C@H]1CCCN1c1cc(Oc2ccc(-n3ncn(Cc4c(F)cccc4F)c3=O)cc2)ccn1 [Example 268, (S)-4-(2,6-difluorobenzyl)-2-(4-((2-(2-methylpyrrolidin-1-yl)pyridin-4-yl)oxy)phenyl)-2,4-dihydro-3H-1,2,4-triazol-3-one]	< 0.1
Nc1c(Oc2ccc(-n3ncn(Cc4c(F)cccc4F)c3=O)cc2)ccnc1N1CC2(CCOCC2)C1 [Example 410, 2-(4-((3-amino-2-(7-oxa-2-azaspiro[3.5]nonan-2-yl)pyridin-4-yl)oxy)phenyl)-4-(2,6-difluorobenzyl)-2,4-dihydro-3H-1,2,4-triazol-3-one]	0.1 to 1
Nc1ccccc1Oc1ccc(-n2ncn(Cc3c(F)cccc3F)c2=O)cc1 [Example 439, 2-(4-(2-aminophenoxy)phenyl)-4-(2,6-difluorobenzyl)-2,4-dihydro-3H-1,2,4-triazol-3-one]	< 0.1
CCOC1CN(c2cc(Oc3ccc(-n4ncn(Cc5c(F)cccc5F)c4=O)cc3Cl)c(Cl)cn2)C1 [Example 260, 2-(3-chloro-4-((5-chloro-2-(3-ethoxyazetidin-1-yl)pyridin-4-yl)oxy)phenyl)-4-(2,6-difluorobenzyl)-2,4-dihydro-3H-1,2,4-triazol-3-one]	< 0.1
CC(C)(C)OC(=O)NC(C)(C)C1CN(c2cc(Oc3ccc(-n4ncn(Cc5c(F)cccc5F)c4=O)cc3F)c(F)cn2)C1 [Example 372, tert-butyl (2-(1-(4-(4-(4-(2,6-difluorobenzyl)-5-oxo-4,5-dihydro-1H-1,2,4-triazol-1-yl)-2-fluorophenoxy)-5-fluoropyridin-2-yl)azetidin-3-yl)propan-2-yl)carbamate]	< 0.1
CC(C)Nc1cc(Oc2ccc(-n3ncn(Cc4c(F)cccc4F)c3=O)cc2)ccn1 [Example 345, 4-(2,6-difluorobenzyl)-2-(4-((2-(isopropylamino)pyridin-4-yl)oxy)phenyl)-2,4-dihydro-3H-1,2,4-triazol-3-one]	0.1 to 1

Same assay, conditions: Homo sapiens; HT-29 cells stimulated with TNF-α (10 ng/ml), SMAC mimetic (6 μM) and zVAD-FMK (10 μM); 20 hours; CellTiter-Glo ATP luminescence; geometric mean IC50 from 10 points; read-out: Activity

SMILES	IC50 [µM]
Cn1nc(C(N)=O)cc1Oc1ccc(-n2nc3n(c2=O)[C@H](c2ccccc2)CC3)cc1F (single isomer, unassigned) [Example 30]	< 0.1
Cc1nc(C(N)=O)cn1Cc1ccc(-n2ncn(Cc3c(F)cccc3F)c2=O)cc1F [Example 103, 1-(4-(4-(2,6-difluorobenzyl)-5-oxo-4,5-dihydro-1H-1,2,4-triazol-1-yl)-2-fluorobenzyl)-2-methyl-1H-imidazole-4-carboxamide]	0.1 to 1
Cn1nc(C(N)=O)cc1Oc1ccc(-n2nc3n(c2=O)[C@H](c2ccccc2F)C[C@@H]3F)cc1F (single isomer, unassigned) [Example 699]	< 0.1
NC(=O)c1scnc1Oc1ccc(-n2ncn(Cc3c(F)cccc3F)c2=O)cc1F [Example 101, 4-(4-(4-(2,6-difluorobenzyl)-5-oxo-4,5-dihydro-1H-1,2,4-triazol-1-yl)-2-fluorophenoxy)thiazole-5-carboxamide]	0.1 to 1
